Activity calls are given as the source filed them. No cut-off for these calls is given here.
Columns and labels:
[1] = target: 3',5'-cyclic-AMP phosphodiesterase 4B (Homo sapiens, UniProt Q07343); assay: Inhibition of recombinant full length PDE4B (unknown origin) using FAM-cAMP as substrate at 1 uM preincubated with compound for compound for 15 mins followed by substrate addition and measured after 30 mins by Envision multilabel reader analysis relative to control; settings: time 45.0 min
HepG2 = assay: Cytotoxicity against human HepG2 cells assessed as reduction in cell viability incubated for 24 hrs by CCK-8 assay; assay type: toxicity, cell-based; settings: hepg2, 24 h
[2] = target: 3',5'-cyclic-AMP phosphodiesterase 4A (Homo sapiens, UniProt P27815); assay: Inhibition of PDE4A (unknown origin) using FAM-cAMP as substrate preincubated with compound for compound for 15 mins followed by substrate addition and measured after 30 mins by Envision multilabel reader analysis
[3] = Metabolic stability in monkey liver microsomes assessed as half life incubated for 4 hrs in presence of NADPH by LC-MS analysis; assay type: ADME, Macaca mulatta, Microsome; settings: rhesus monkey
[4] = Metabolic stability in dog liver microsomes assessed as half life incubated for 4 hrs in presence of NADPH by LC-MS analysis; assay type: ADME, Canis lupus familiaris, Microsome
[5] = AUC (0 to infinity) in Sprague-Dawley rat at 10 mg/kg, po measured upto 24 hrs by LC-MS/MS analysis; assay type: ADME, organism-based; settings: in vivo
[6] = AUC (0 to infinity) in Sprague-Dawley rat at 5 mg/kg, iv measured upto 24 hrs by LC-MS/MS analysis; assay type: ADME, organism-based; settings: in vivo
[7] = Cmax in Sprague-Dawley rat at 10 mg/kg, po measured upto 24 hrs by LC-MS/MS analysis; assay type: ADME, organism-based; settings: in vivo
[8] = Half life in Sprague-Dawley rat at 10 mg/kg, po measured upto 24 hrs by LC-MS/MS analysis; assay type: ADME, organism-based; settings: in vivo
[9] = Tmax in Sprague-Dawley rat at 10 mg/kg, po measured upto 24 hrs by LC-MS/MS analysis; assay type: ADME, organism-based; settings: in vivo
[10] = Clearance in Sprague-Dawley rat at 5 mg/kg, iv measured upto 24 hrs by LC-MS/MS analysis; assay type: ADME, organism-based; settings: in vivo
RAW264.7 [11] = assay: Cytotoxicity against mouse RAW264.7 cells assessed as reduction in cell viability incubated for 24 hrs by CCK-8 assay; assay type: toxicity, cell-based; settings: raw264.7, 24 h
RAW264.7 [12] = assay: Anti-inflammatory activity in LPS-induced mouse RAW264.7 cells assessed as inhibition of TNF-alpha secretion level at 10 uM preincubated with compound for 1 hr followed by LPS addition and measured after 24 hrs by ELISA; assay type: functional, cell-based; settings: time 25.0 hrs
RAW264.7 [13] = assay: Anti-inflammatory activity in LPS-induced mouse RAW264.7 cells assessed as inhibition of IL-6 secretion level at 10 uM preincubated with compound for 1 hr followed by LPS addition and measured after 24 hrs by ELISA; assay type: functional, cell-based; settings: time 25.0 hrs
RAW264.7 [14] = assay: Anti-inflammatory activity in LPS-induced mouse RAW264.7 cells assessed as inhibition of IL-1 beta secretion level at 10 uM preincubated with compound for 1 hr followed by LPS addition and measured after 24 hrs by ELISA; assay type: functional, cell-based; settings: time 25.0 hrs
BEAS-2B = assay: Anti-inflammatory activity in LPS-induced human BEAS-2B cells assessed as inhibition of IL-6 secretion level at 10 uM preincubated with compound for 1 hr followed by LPS addition and measured after 24 hrs by ELISA; assay type: functional, cell-based; settings: time 25.0 hrs
[15] = Acute toxicity in Sprague-Dawley rat assessed as increase in body weight at 1 g/Kg, po administered via gavage and measured on day 14; assay type: organism-based; settings: in vivo, 1000 mg/kg
[16] = Acute toxicity in Sprague-Dawley rat assessed as pathological changes in lung at 1 g/Kg, po administered via gavage by H and E staining based analysis; assay type: organism-based; settings: in vivo, 1000 mg/kg
[17] = Acute toxicity in Sprague-Dawley rat assessed as effect on apparent heart coefficient change at 1 g/Kg, po administered via gavage; assay type: organism-based; settings: in vivo, 1000 mg/kg
[18] = Acute toxicity in Sprague-Dawley rat assessed as effect on apparent kidney coefficient change at 1 g/Kg, po administered via gavage; assay type: organism-based; settings: in vivo, 1000 mg/kg
[19] = Acute toxicity in Sprague-Dawley rat assessed as effect on apparent spleen coefficient change at 1 g/Kg, po administered via gavage; assay type: organism-based; settings: in vivo, 1000 mg/kg
[20] = Toxicity in female Beagle dog assessed as emesis at 1 to 3 mg/kg, po administered once via gavage and measured within 24 hrs; assay type: organism-based, Canis lupus familiaris; settings: in vivo, dose 1-3 mg/kg
Mus musculus [21] = assay: Anti-inflammatory activity against LPS-induced acute lung injury male BALB/c mouse model assessed as reduction in IL-1beta level in BALF at 8 to 32 mg/kg administered once a day via gavage for 7 days followed by LPS stimulation and measured after 24 hrs; assay type: functional, organism-based; settings: dose 8-32 mg/kg, time 192.0 hrs
Mus musculus [22] = assay: Anti-inflammatory activity against LPS-induced acute lung injury male BALB/c mouse model assessed as restoration of alveolar cavities in lung at 8 to 32 mg/kg administered once a day via gavage for 7 days followed by LPS stimulation and measured after 24 hrs by H and E staining based microscopic analysis; assay type: functional, organism-based; settings: dose 8-32 mg/kg, time 192.0 hrs
Mus musculus [23] = assay: Antifibrotic activity against LPS-induced acute lung injury male BALB/c mouse model assessed as decrease in collagen deposition at 8 to 32 mg/kg administered once a day via gavage for 7 days followed by LPS stimulation and measured after 24 hrs by masson staining based microscopic analysis; assay type: functional, organism-based; settings: dose 8-32 mg/kg, time 192.0 hrs
Mus musculus [24] = assay: Anti-inflammatory activity against cigarette-smoke/LPS-induced COPD male C57BL/6 mouse model assessed as reduction in TNF-alpha level in BALF at 5 mg/kg pretreated with cigarette smoke exposure for 21 weeks with subsequent LPS induction twice on the first and 15th day followed by compound administration every day via gavage for 4 weeks; assay type: functional, organism-based
Mus musculus [25] = assay: Anti-inflammatory activity against cigarette-smoke/LPS-induced COPD male C57BL/6 mouse model assessed as decrease in collagen formation at 5 mg/kg pretreated with cigarette smoke exposure for 21 weeks with subsequent LPS induction twice on the first and 15th day followed by compound administration every day via gavage for 4 weeks by masson staining based microscopic analysis; assay type: functional, organism-based
NCI-H292 = assay: Anti-inflammatory activity against EGF-induced human NCI-H292 cells assessed as decrease in MUC5AC mRNA expression by RT-qPCR analysis; assay type: functional, cell-based; settings: dose 10-50 µM
Mus musculus [26] = assay: Antitussive activity in male BALB/c mouse model assessed as delay in cough incubation period at 32 mg/kg administered every day via gavage for 7 days at 1 hrs post last dose and measured within 3 min; assay type: functional, organism-based; settings: time 169.05 hrs
RAW264.7 [27] = assay: cells; settings: Mus musculus

Chain of 3',5'-cyclic-AMP phosphodiesterase 4A (P27815 whole entry): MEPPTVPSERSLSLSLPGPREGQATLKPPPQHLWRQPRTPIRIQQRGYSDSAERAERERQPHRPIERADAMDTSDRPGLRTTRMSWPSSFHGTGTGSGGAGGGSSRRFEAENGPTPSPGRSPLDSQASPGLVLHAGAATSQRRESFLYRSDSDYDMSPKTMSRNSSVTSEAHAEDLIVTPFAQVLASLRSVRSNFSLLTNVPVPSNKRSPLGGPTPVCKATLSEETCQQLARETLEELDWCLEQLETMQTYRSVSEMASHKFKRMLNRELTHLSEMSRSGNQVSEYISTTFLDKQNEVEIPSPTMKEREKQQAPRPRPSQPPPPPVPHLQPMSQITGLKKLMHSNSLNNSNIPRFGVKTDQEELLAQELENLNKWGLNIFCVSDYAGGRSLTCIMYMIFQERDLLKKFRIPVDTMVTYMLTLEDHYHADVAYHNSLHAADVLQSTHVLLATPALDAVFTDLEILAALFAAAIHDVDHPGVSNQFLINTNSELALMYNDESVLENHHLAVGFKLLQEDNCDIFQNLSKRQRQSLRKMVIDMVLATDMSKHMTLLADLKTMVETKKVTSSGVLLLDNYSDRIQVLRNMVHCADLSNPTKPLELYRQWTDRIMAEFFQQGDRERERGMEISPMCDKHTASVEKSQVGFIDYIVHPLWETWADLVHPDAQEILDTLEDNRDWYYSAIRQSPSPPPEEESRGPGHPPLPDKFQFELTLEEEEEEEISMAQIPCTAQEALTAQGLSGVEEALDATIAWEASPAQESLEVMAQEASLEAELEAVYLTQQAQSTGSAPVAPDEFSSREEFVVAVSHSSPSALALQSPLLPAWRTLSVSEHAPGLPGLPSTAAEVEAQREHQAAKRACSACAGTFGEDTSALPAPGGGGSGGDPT
Chain of 3',5'-cyclic-AMP phosphodiesterase 4B (Q07343 whole entry): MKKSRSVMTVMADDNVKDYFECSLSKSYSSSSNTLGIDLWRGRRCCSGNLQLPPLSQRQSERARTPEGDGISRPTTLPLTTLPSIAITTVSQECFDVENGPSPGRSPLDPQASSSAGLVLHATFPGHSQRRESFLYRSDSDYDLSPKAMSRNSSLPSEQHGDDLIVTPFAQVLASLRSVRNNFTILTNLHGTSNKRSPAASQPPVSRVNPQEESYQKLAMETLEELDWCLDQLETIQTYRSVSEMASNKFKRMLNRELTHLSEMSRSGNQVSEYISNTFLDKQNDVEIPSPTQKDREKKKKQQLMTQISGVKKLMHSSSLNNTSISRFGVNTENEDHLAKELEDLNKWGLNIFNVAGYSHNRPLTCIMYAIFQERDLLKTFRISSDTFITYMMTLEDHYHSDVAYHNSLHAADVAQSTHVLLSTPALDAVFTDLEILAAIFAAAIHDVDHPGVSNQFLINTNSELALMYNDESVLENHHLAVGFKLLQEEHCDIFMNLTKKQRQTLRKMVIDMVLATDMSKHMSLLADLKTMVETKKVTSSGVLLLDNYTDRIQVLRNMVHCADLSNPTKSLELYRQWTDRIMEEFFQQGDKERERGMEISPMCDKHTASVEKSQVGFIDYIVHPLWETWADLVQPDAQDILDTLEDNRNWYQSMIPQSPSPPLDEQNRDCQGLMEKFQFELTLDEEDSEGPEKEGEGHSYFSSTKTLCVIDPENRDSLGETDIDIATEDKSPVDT

For `O=C(Nc1nccs1)c1cccc2[nH]c(-c3ccc(OC(F)F)c(OCC4CC4)c3)nc12`, which inhibition [1] is on record?
The inhibition was 89.9%.

What about the Activity (HepG2) of the same molecule?
The Activity was “Non-toxic”.

And the IC50 [2]?
The IC50 was 0.0897 µM.

What about the half-life [3] of the same molecule?
The half-life was 0.737 h.

And the half-life [4]?
The half-life was 0.721 h.

What about the AUC(0-inf) [5] of the same molecule?
The AUC(0-inf) was 2.16 µg·h/mL.

What about the AUC(0-inf) [6] of the same molecule?
Its AUC(0-inf) is 23.2 µg·h/mL.

What about the Cmax [7] of the same molecule?
Its Cmax is 0.219 µg/mL.

What about the half-life [8] of the same molecule?
Its half-life is 3.75 h.

And the Tmax [9]?
Its Tmax is 3 h.

And the clearance [10]?
The clearance was 0.217 L/h/kg.

What about the Activity (RAW264.7 [11]) of the same molecule?
Its Activity is “Non-toxic”.

What about the Activity (RAW264.7 [12]) of the same molecule?
The Activity was “Active”.

What about the Activity (RAW264.7 [13]) of the same molecule?
Its Activity is “Active”.

And the Activity (RAW264.7 [14])?
Its Activity is “Active”.

And the Activity (BEAS-2B)?
The Activity was “Active”.

And the Activity [15]?
Its Activity is “Non-toxic”.

What about the Activity [16] of the same molecule?
The Activity was “Non-toxic”.

And the Activity [17]?
Its Activity is “Non-toxic”.

What about the Activity [18] of the same molecule?
Its Activity is “Non-toxic”.

And the Activity [19]?
Its Activity is “Non-toxic”.

And the Activity [20]?
The Activity was “Non-toxic”.

What about the Activity (Mus musculus [21]) of the same molecule?
Its Activity is “Active”.

And the Activity (Mus musculus [22])?
The Activity was “Active”.

What about the Activity (Mus musculus [23]) of the same molecule?
Its Activity is “Active”.

What about the Activity (Mus musculus [24]) of the same molecule?
Its Activity is “Active”.

And the Activity (Mus musculus [25])?
Its Activity is “Active”.

What about the Activity (NCI-H292) of the same molecule?
The Activity was “Dose-dependent-effect”.

What about the Activity (Mus musculus [26]) of the same molecule?
Its Activity is “Active”.

What about the IC50 (RAW264.7 [27]) of the same molecule?
The IC50 was 29.5 µM.

Reference: ChEMBL document CHEMBL6121047, “Design, Synthesis, and Evaluation of Selective PDE4 Inhibitors for the Therapy of Pulmonary Injury” (J Med Chem, 2025)
